Laboratory results taken from US8309582B2, “Small molecule Bcl-Xl/Bcl-2 binding inhibitors” (The Ohio State University Research Foundation, priority 2004, dated 2012).

Tests used:
[1] = WB (IC50 for WB, Tables 1-9); assay type: cell-based; conditions: marker, cell line and unit inferred
Description: Immunoblotting. Cells in T-75 flasks were collected by scraping, and suspended in 60 μl of phosphate-buffered saline (PBS). Two μl of the suspension was taken for protein analysis using the Bradford assay kit (Bio-Rad, Hercules, Calif.). To the remaining solution was added the same volume of 2×SDS-PAGE sample loading buffer (100 mM Tris-HCl, pH 6.8, 4% SDS, 5% β-mercaptoethanol 20% glycerol, and 0.1% bromophenol blue). The mixture was sonicated briefly, and boiled for 5 min. Equal amounts of proteins were loaded onto 10% SDS-PAGE gels.
After electrophoresis, protein bands were transferred to nitrocellulose membranes in a semidry transfer cell. The transblotted membrane was washed twice with Tris-buffered saline (TBS) containing 0.1% Tween 20 (TBST). After blocking with TBST containing 5% nonfat milk for 40 min, the membrane was incubated with the appropriate primary antibody in TBST-1% nonfat milk at 4° C. overnight. All primary antibodies were diluted 1:1000 in 1% nonfat milk-containing TBST. After treatment with the primary antibody, the membrane was washed three times with TBST for a total of 15 min, followed by incubation with goat anti-rabbit or anti-mouse IgG-horseradish peroxidase conjugates (diluted 1:5000) for 1 h at room temperature and three washes with TBST for a total of 1 h. The immunoblots were visualized by enhanced chemiluminescence.

[2] = tested on: PC-3 cells; assay: Cell viability analysis (MTT) in PC-3 cells; assay type: cell-based; conditions: Homo sapiens, PC-3, PC-3 cells, read-out: IC50 (μM) PC3
Description: Cell viability analysis. The effect of individual test agents on cell viability was assessed by using the MTT {[3-(4,5-dimethylthiazol-2-yl)-2,5-diphenyl-2H-tetrazolium bromide]} assay in six to twelve replicates. […] Controls received DMSO vehicle at a concentration equal to that in drug-treated cells. […] Supernatants were removed from the wells, and the reduced MTT dye was solubilized in 200 μl/well DMSO. Absorbance at 570 nm was determined on a plate reader.
(§1) Determination of IC50 values. Data from cell viability and FP assays were analyzed by using the CalcuSyn software (Biosoft, Ferguson, Mo.) to determine IC50 values, in which the calculation was based on the medium effect equation (18), i.e., Log(fa/fu)=m log(D)−m log(Dm) (equation 1), where fa and fu denote fraction affected and unaffected, respectively; m represents the Hill-type coefficient signifying the sigmoidicity of the dose-effect curve; D and Dm are the dose used and IC50, respectively.

[3] = MTT assay (IC50 for MTT, Tables 1-9); assay type: cell-based; conditions: cell line and unit inferred
Description: Cell viability analysis. The effect of individual test agents on cell viability was assessed by using the MTT {[3-(4,5-dimethylthiazol-2-yl)-2,5-diphenyl-2H-tetrazolium bromide]} assay in six to twelve replicates. Cells were seeded and incubated in 96-well, flat-bottomed plates in serum-free media for 24 h, and were exposed to various concentrations of test agents dissolved in DMSO (final concentration, 0.1%) in serum-free RPMI 1640 medium for different time intervals. Controls received DMSO vehicle at a concentration equal to that in drug-treated cells. The medium was removed, replaced by 200 μl of 0.5 mg/ml of MTT in 10% FBS-containing RPMI-1640 medium, and cells were incubated in the CO2 incubator at 37° C. for 2 h. Supernatants were removed from the wells, and the reduced MTT dye was solubilized in 200 μl/well DMSO. Absorbance at 570 nm was determined on a plate reader.
as §1

[4] = biological target: T1, Bcl-xL (Homo sapiens, UniProt Q07817); assay: Competitive fluorescence polarization assay, displacement of Flu-BakBH3 peptide from Bcl-xL; assay type: binding; conditions: unit inferred; read-out: IC50 for inhibiting BH3-mediated protein interactions (Bcl-xL)
T1 construct: fused on or other part: His tag
T1 sequence (Q07817 1-209 limits assumed): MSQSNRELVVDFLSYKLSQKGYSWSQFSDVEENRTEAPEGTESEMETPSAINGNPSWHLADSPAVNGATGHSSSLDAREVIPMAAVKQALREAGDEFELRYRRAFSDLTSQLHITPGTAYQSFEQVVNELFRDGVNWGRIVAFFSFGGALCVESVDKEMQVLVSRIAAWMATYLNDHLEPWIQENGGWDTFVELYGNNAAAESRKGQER
Description: (§2) Competitive Fluorescence Polarization Assay. The binding affinity of the test agent to Bcl-2 and Bcl-xL was analyzed by a competitive fluorescence polarization assay, in which the ability of the agent to displace the binding of a Bak BH3-domain peptide to either Bcl-2 or Bcl-xL was determined. Flu-BakBH3, a Bak-BH3 peptide labeled at the N-terminus with fluorescein, was purchased from Genemed Synthesis (San Francisco, Calif.). C-Terminal-truncated, His-tagged Bcl-xL was purchased from EMD Biosciences (San Diego, Calif.), and soluble GST-fused Bcl-2 was obtained from Santa Cruz (Santa Cruz, Calif.). The KD determination was carried out in a dual-pathlength quartz cell with readings taken at […] at room temperature using a luminescence spectrometer according to an established procedure (17). Determination of IC50 values. Data from cell viability and FP assays were analyzed by using the CalcuSyn software (Biosoft, Ferguson, Mo.) to determine IC50 values, in which the calculation was based on the medium effect equation (18), i.e., Log(fa/fu)=m log(D)−m log(Dm) (equation 1), where fa and fu denote fraction affected and unaffected, respectively; m represents the Hill-type coefficient signifying the sigmoidicity of the dose-effect curve; D and Dm are the dose used and IC50, respectively.

[5] = biological target: Bcl-2 (Homo sapiens, UniProt P10415); assay: Competitive fluorescence polarization assay, displacement of Flu-BakBH3 peptide from Bcl-2; assay type: binding; conditions: unit inferred; read-out: IC50 for inhibiting BH3-mediated protein interactions (Bcl-2)
Sequence of Bcl-2 (P10415 whole entry): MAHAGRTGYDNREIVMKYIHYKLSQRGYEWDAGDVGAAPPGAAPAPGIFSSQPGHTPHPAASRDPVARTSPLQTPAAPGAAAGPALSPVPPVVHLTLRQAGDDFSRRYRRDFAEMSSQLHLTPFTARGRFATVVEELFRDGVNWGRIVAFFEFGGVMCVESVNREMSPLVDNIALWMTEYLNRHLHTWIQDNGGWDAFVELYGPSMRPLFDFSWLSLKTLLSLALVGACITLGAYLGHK
Description: as §2

| Structure (SMILES) | IC50 [1] | IC50 [2] | IC50 [4] | IC50 [5] | IC50 [3] |
| --- | --- | --- | --- | --- | --- |
| CC(C)=CCOc1c(C)c(C)c2c(c1C)CCC(C)(COc1ccc(/C=C3\SC(=O)NC3=O)cc1[N+](=O)[O-])O2 (centres unmarked) [TG-35] | 2.7 µM | > 50 µM |  |  |  |
| CC(C)=CCOc1c(C)c(C)c2c(c1C)CCC(C)(COc1ccc(/C=C3\SC(=O)NC3=O)c3ccccc13)O2 (centres unmarked) [TG-43] | 7.2 µM | 3 ± 0.2 µM |  |  |  |
| COc1cc(/C=C2\SC(=O)NC2=O)cc(Br)c1OCC1(C)CCc2c(C)c(OCC=C(C)C)c(C)c(C)c2O1 (centres unmarked) [TG-44] | > 7.5 µM | 5.1 ± 0.4 µM |  |  |  |
| CCOc1cc(/C=C2\SC(=O)NC2=O)ccc1OCC1(C)CCc2c(C)c(OCC=C(C)C)c(C)c(C)c2O1 (centres unmarked) [TG-45] | 6.7 µM | 4.6 ± 0.3 µM |  |  |  |
| CC(C)=CCOc1c(C)c(C)c2c(c1C)CCC(C)(COc1ccc(/C=C3\SC(=S)NC3=O)c3ccccc13)O2 (centres unmarked) [TG-46] | 6.7 µM | 5.3 ± 0.3 µM |  |  |  |
| C=CCOc1c(C)c(C)c2c(c1C)CCC(C)(COc1cccc(/C=C3\SC(=O)NC3=O)c1)O2 (centres unmarked) [TG-51] | 4.4 µM | 6.8 ± 0.2 µM |  |  | 40 µM |
| C=CCOc1c(C)c(C)c2c(c1C)CCC(C)(COc1c(C)cc(/C=C3\SC(=O)NC3=O)cc1C)O2 (centres unmarked) [TG-52] | 7.5 µM | 4.5 ± 0.2 µM |  |  |  |
| C=CCOc1c(C)c(C)c2c(c1C)CCC(C)(COc1ccc(/C=C3\SC(=O)NC3=O)c3ccccc13)O2 (centres unmarked) [TG-53] | 3.4 µM | 3.3 ± 0.3 µM |  |  |  |
| C=CCOc1c(C)c(C)c2c(c1C)CCC(C)(COc1c(Br)cc(/C=C3\SC(=O)NC3=O)cc1OC)O2 (centres unmarked) [TG-54] | 3.8 µM |  |  |  |  |
| C=CCOc1c(C)c(C)c2c(c1C)CCC(C)(COc1ccc(/C=C3\SC(=O)NC3=O)cc1OCC)O2 (centres unmarked) [TG-55] | > 7.5 µM |  |  |  |  |
| CN(CCOc1ccc(C=C2SC(O)=NC2=O)cc1)c1ccccn1 [Δ2-RG, 5-{4-[2-(methyl-pyridin-2-yl-amino)-ethoxy]-benzylidene}-thiazolidine-2,4-dione] |  |  | > 50 µM | > 50 µM |  |

More lines, main results first:

| IC50 [1] | IC50 [2] | IC50 [4] | IC50 [5] | Structure (SMILES) | IC50 [3] |
| --- | --- | --- | --- | --- | --- |
| > 7.5 µM | > 50 µM |  |  | CC(C)=CCOc1c(C)c(C)c2c(c1C)CCC(C)(COc1ccc(C=C(C#N)C#N)cc1Br)O2 (centres unmarked) [TG-36] | > 50 µM |
| > 7.5 µM | 6 ± 0.7 µM |  |  | CC(C)=CCOc1c(C)c(C)c2c(c1C)CCC(C)(COc1ccc(/C=C/C(=O)O)cc1Br)O2 (centres unmarked) [TG-37] |  |
| 4.5 µM | 12.5 ± 0.6 µM |  |  | CCOC(=O)C(C)(C)C(O)c1ccc(OCC2(C)CCc3c(C)c(OCC=C(C)C)c(C)c(C)c3O2)c(Br)c1 (centres unmarked) [TG-38] | > 50 µM |
| > 7.5 µM | 7 ± 0.4 µM |  |  | CC(C)=CCOc1c(C)c(C)c2c(c1C)CCC(C)(COc1ccc(C(O)C(C)(C)C(=O)O)cc1Br)O2 (centres unmarked) [TG-39] |  |
| > 7.5 µM | > 50 µM |  |  | CCOC(=O)C(=Cc1ccc(OCC2(C)CCc3c(C)c(OCC=C(C)C)c(C)c(C)c3O2)c(Br)c1)C(=O)OCC (centres unmarked) [TG-41] | > 50 µM |
| > 7.5 µM | 16 ± 0.3 µM |  |  | CC(C)=CCOc1c(C)c(C)c2c(c1C)CCC(C)(COc1ccc(C=C(C(=O)O)C(=O)O)cc1Br)O2 (centres unmarked) [TG-42] | > 50 µM |
|  | 4.4 ± 0.4 µM |  |  | CC(C)=CCOc1c(C)c(C)c2c(c1C)CCC(C)(COc1ccc(/C=C3\SC(=S)NC3=O)cc1Br)O2 (centres unmarked) [TG-89] |  |
